In the NIST ThermoML archive (doi:10.1016/j.tca.2013.08.031):
Numbers after ± are expanded uncertainties.

Test: molar heat capacity at constant volume
Conditions: Fluid (supercritical or subcritical phases), Vacuum adiabatic calorimetry

CCC(C)O (stereo unspecified) [butan-2-ol]
Conditions | molar heat capacity at constant volume [J/K/mol]
513.55 K, Mass density=474.07 kg/m3 | 293.52 ± 3
513.74 K, Mass density=95.93 kg/m3 | 641.3 ± 8.3
513.74 K, Mass density=474.07 kg/m3 | 293.52 ± 3
513.92 K, Mass density=95.93 kg/m3 | 638.11 ± 8.2
513.92 K, Mass density=474.07 kg/m3 | 295 ± 3
514.11 K, Mass density=95.93 kg/m3 | 635.74 ± 8.3
514.11 K, Mass density=474.07 kg/m3 | 289.82 ± 3
514.3 K, Mass density=95.93 kg/m3 | 627.59 ± 8.1
514.3 K, Mass density=474.07 kg/m3 | 283.14 ± 3
514.48 K, Mass density=95.93 kg/m3 | 308.72 ± 5.9
514.48 K, Mass density=474.07 kg/m3 | 295.75 ± 3
514.67 K, Mass density=95.93 kg/m3 | 252.53 ± 5.5
514.67 K, Mass density=474.07 kg/m3 | 285.37 ± 3
514.86 K, Mass density=95.93 kg/m3 | 246.31 ± 5.6
514.86 K, Mass density=474.07 kg/m3 | 291.3 ± 3
515.04 K, Mass density=95.93 kg/m3 | 265.58 ± 6.4
515.04 K, Mass density=474.07 kg/m3 | 286.85 ± 3
515.23 K, Mass density=95.93 kg/m3 | 271.43 ± 3
515.23 K, Mass density=474.07 kg/m3 | 240.9 ± 2.2
515.42 K, Mass density=95.93 kg/m3 | 276.47 ± 2.9
515.42 K, Mass density=474.07 kg/m3 | 230.52 ± 2.2
515.6 K, Mass density=474.07 kg/m3 | 230.52 ± 2.2
515.79 K, Mass density=95.93 kg/m3 | 198.72 ± 2.1
515.79 K, Mass density=474.07 kg/m3 | 229.04 ± 2.2
515.98 K, Mass density=95.93 kg/m3 | 206.28 ± 2.1
515.98 K, Mass density=474.07 kg/m3 | 232.74 ± 2.2
516.16 K, Mass density=95.93 kg/m3 | 200.65 ± 2.1
516.35 K, Mass density=95.93 kg/m3 | 215.69 ± 2.4
516.53 K, Mass density=95.93 kg/m3 | 229.41 ± 2.4
516.53 K, Mass density=403.55 kg/m3 | 311.31 ± 3
516.53 K, Mass density=474.07 kg/m3 | 220.14 ± 2.2
516.72 K, Mass density=95.93 kg/m3 | 228.07 ± 2.3
516.72 K, Mass density=403.55 kg/m3 | 309.83 ± 3
516.72 K, Mass density=474.07 kg/m3 | 223.11 ± 2.2
516.91 K, Mass density=95.93 kg/m3 | 243.71 ± 2.5
516.91 K, Mass density=403.55 kg/m3 | 312.79 ± 3
516.91 K, Mass density=474.07 kg/m3 | 221.62 ± 2.2
516.91 K, Mass density=538.17 kg/m3 | 212.88 ± 2.1
517.09 K, Mass density=95.93 kg/m3 | 203.61 ± 2.1
517.09 K, Mass density=403.55 kg/m3 | 309.09 ± 3
517.09 K, Mass density=474.07 kg/m3 | 222.36 ± 2.2
517.09 K, Mass density=538.17 kg/m3 | 213.84 ± 2.1
517.28 K, Mass density=95.93 kg/m3 | 224.96 ± 2.3
517.28 K, Mass density=403.55 kg/m3 | 310.57 ± 3
517.28 K, Mass density=538.17 kg/m3 | 214.06 ± 2.1
517.47 K, Mass density=403.55 kg/m3 | 313.53 ± 3
517.65 K, Mass density=403.55 kg/m3 | 309.09 ± 3
520.44 K, Mass density=117 kg/m3 | 740.77 ± 7.4
520.63 K, Mass density=117 kg/m3 | 732.54 ± 7.3
520.81 K, Mass density=117 kg/m3 | 737.95 ± 7.4
521 K, Mass density=117 kg/m3 | 726.1 ± 7.3
521.18 K, Mass density=117 kg/m3 | 734.77 ± 7.4
521.37 K, Mass density=117 kg/m3 | 723.58 ± 7.5
521.55 K, Mass density=117 kg/m3 | 728.69 ± 9.4
521.74 K, Mass density=117 kg/m3 | 715.2 ± 9.9
521.74 K, Mass density=142.27 kg/m3 | 509.66 ± 5.2
521.92 K, Mass density=117 kg/m3 | 709.42 ± 9.7
521.92 K, Mass density=142.27 kg/m3 | 517.74 ± 5.2
522.11 K, Mass density=117 kg/m3 | 639 ± 9.1
522.11 K, Mass density=142.27 kg/m3 | 522.71 ± 5.3
522.13 K, Mass density=117 kg/m3 | 606.09 ± 8.8
522.15 K, Mass density=117 kg/m3 | 603.42 ± 8.4
522.16 K, Mass density=117 kg/m3 | 599.35 ± 8.4
522.18 K, Mass density=117 kg/m3 | 590.9 ± 8.3
522.2 K, Mass density=117 kg/m3 | 590.9 ± 8.3
522.22 K, Mass density=117 kg/m3 | 505.14 ± 7.7
522.24 K, Mass density=117 kg/m3 | 408.41 ± 7.1
522.26 K, Mass density=117 kg/m3 | 318.13 ± 6.7
522.28 K, Mass density=117 kg/m3 | 304.49 ± 7.2
522.3 K, Mass density=117 kg/m3 | 309.61 ± 7.3
522.3 K, Mass density=142.27 kg/m3 | 521.45 ± 5.3
522.31 K, Mass density=117 kg/m3 | 308.86 ± 7.3
522.33 K, Mass density=117 kg/m3 | 298.12 ± 6.7
522.35 K, Mass density=117 kg/m3 | 289.44 ± 6.7
522.37 K, Mass density=117 kg/m3 | 280.77 ± 6.7
522.39 K, Mass density=117 kg/m3 | 260.54 ± 6.6
522.4 K, Mass density=117 kg/m3 | 247.05 ± 6.6
522.42 K, Mass density=117 kg/m3 | 241.56 ± 6.6
522.44 K, Mass density=117 kg/m3 | 241.56 ± 6.6
522.46 K, Mass density=117 kg/m3 | 222.29 ± 7
522.48 K, Mass density=117 kg/m3 | 221.62 ± 7
522.48 K, Mass density=142.27 kg/m3 | 530.71 ± 5.3
522.67 K, Mass density=117 kg/m3 | 241.78 ± 7.1
522.67 K, Mass density=142.27 kg/m3 | 535.45 ± 5.4
522.85 K, Mass density=117 kg/m3 | 245.27 ± 7.2
522.85 K, Mass density=142.27 kg/m3 | 540.12 ± 5.4
523.04 K, Mass density=117 kg/m3 | 242.75 ± 4.2
523.04 K, Mass density=142.27 kg/m3 | 544.87 ± 5.5
523.22 K, Mass density=117 kg/m3 | 224.14 ± 2.3
523.22 K, Mass density=142.27 kg/m3 | 528.41 ± 5.3
523.41 K, Mass density=117 kg/m3 | 213.62 ± 2.3
523.41 K, Mass density=142.27 kg/m3 | 530.64 ± 5.3
523.59 K, Mass density=142.27 kg/m3 | 531.67 ± 5.3
523.78 K, Mass density=142.27 kg/m3 | 532.34 ± 5.3
524.33 K, Mass density=142.27 kg/m3 | 531.23 ± 5.3
524.52 K, Mass density=142.27 kg/m3 | 529.97 ± 5.3
524.7 K, Mass density=142.27 kg/m3 | 534.05 ± 5.3
524.89 K, Mass density=142.27 kg/m3 | 531.45 ± 5.3
525.07 K, Mass density=142.27 kg/m3 | 529.6 ± 5.3
525.26 K, Mass density=142.27 kg/m3 | 530.41 ± 5.3
525.44 K, Mass density=142.27 kg/m3 | 530.93 ± 5.3
525.63 K, Mass density=142.27 kg/m3 | 531.82 ± 5.3
525.81 K, Mass density=142.27 kg/m3 | 537.01 ± 5.4
525.99 K, Mass density=142.27 kg/m3 | 538.94 ± 5.8
527.1 K, Mass density=142.27 kg/m3 | 532.93 ± 5.7
527.29 K, Mass density=142.27 kg/m3 | 536.64 ± 5.6
